Read-outs that look alike come from different tables or passages of the source.
Tests used:
WEE1 = biological target: T1, WEE1 (Homo sapiens, UniProt P30291+Q96SW2); experiment: WEE1-ePL degradation assay (LentiX-WEE1-ePL-GSPT1-ND cells, InCELL Hunter luminescence, 4 h); format: cell-based; conditions: 293T-LentiX WEE1-ePL cells; for DC50: read-out: 293T-LentiX WEE1-ePL Degradation 4 hr (EC50)
T1 construct: C-terminal ePL-tagged (DiscoverX, Fremont, CA) full-length WEE1 expression construct; expressed in transfected cells; host or cells: LentiX-HEK293T (Invitrogen), lentiviral transduction; co-expressing GSPT1-GN (G576N, lacking the first 158 amino acids)
In short: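 Luminescent readout (InCELL Hunter, 30 min RT) of WEE1-ePL levels in transduced HEK293T cells after 4 h compound exposure at 37 °C. Dosing: 10 points, 3-fold steps, top 1 uM or 10 uM. EC50 from four-parameter logistic fit; Ymax set by DMSO.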

MKN45 cells = experiment: MKN45 cell proliferation assay (Cell-Titer-Glo, 120 h); format: cell-based; conditions: for EC50: Homo sapiens, MKN-45, 120 h, Cell-Titer-Glo, read-out: MKN45 Cell Prolif. 120 hr (EC50); for MKN45 Cell Prolif. 120 hr (Ymin-Obs): minimal percent of DMSO control observed in the concentrations tested
In short: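 Growth inhibition was read as blank-corrected Cell-Titer-Glo luminescence expressed as percent DMSO control after 120 h at 37 C, 400 cells/well. Compounds tested in triplicate as 10-point half-log series from 1 or 10 uM, 0.1% DMSO; four-parameter fit gave EC50, and lowest observed percent control was reported as Ymin-obs.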

[1] = lower limit of the fit (0 = luciferase inhibitor, Ymax = DMSO control)
[2] = lower limit of the fit (Ymin=0 luciferase inhibitor, Ymax DMSO control)

| SMILES | 293T-LentiX WEE1-ePL Degradation 4 hr (Ymin) (WEE1; [1]) | DC50 (WEE1) [nM] | EC50 (MKN45 cells; growth inhibition) [nM] | MKN45 Cell Prolif. 120 hr (Ymin-Obs) (MKN45 cells) | 293T-LentiX WEE1-ePL Degradation 4 hr (Ymin) (WEE1; [2]) | EC50 (MKN45 cells) [nM] |
| --- | --- | --- | --- | --- | --- | --- |
| O=C1CCC(N2Cc3cc(O[C@H]4CCN(Cc5ccc6nc([C@@H]7CC[C@H](O)C7)ccc6c5)C4)ccc3C2=O)C(=O)N1 (stereo partly drawn) [3-(5-{[(3S)-1-({2-[(1R,3S)-3-hydroxycyclopentyl]quinolin-6-yl}methyl)pyrrolidin-3-yl]oxy}-1-oxo-2,3-dihydro-1H-isoindol-2-yl)piperidine-2,6-dione] | 32 | 3.33 | 0.655 | 7.585 |  |  |
| O=C1CC[C@H](N2Cc3cc(O[C@H]4CCN(Cc5cc(C6COC6)c6nc(C7CCOCC7)ccc6c5)C4)ccc3C2=O)C(=O)N1 [(3S)-3-(5-{[(3S)-1-{[2-(oxan-4-yl)-8-(oxetan-3-yl)quinolin-6-yl]methyl}pyrrolidin-3-yl]oxy}-1-oxo-2,3-dihydro-1H-isoindol-2-yl)piperidine-2,6-dione] |  |  |  | 96.91 | 88.43 | 2.94 |
| O=C1CCC(N2Cc3cc(O[C@H]4CCN(Cc5cc6cc([C@@H]7CCOC7)ccc6cn5)C4)ccc3C2=O)C(=O)N1 (stereo partly drawn) [3-(1-oxo-5-{[(3S)-1-({6-[(3S)-oxolan-3-yl]isoquinolin-3-yl}methyl)pyrrolidin-3-yl]oxy}-2,3-dihydro-1H-isoindol-2-yl)piperidine-2,6-dione] | 28 | 5.38 | 12.9 | 5.87 |  |  |
| O=C1CCC(N2Cc3cc(O[C@H]4CCN(Cc5ccc6nc([C@@H]7CC[C@@H](O)C7)ccc6c5)C4)ccc3C2=O)C(=O)N1 (stereo partly drawn) [3-(5-{[(3S)-1-({2-[(1R,3R)-3-hydroxycyclopentyl]quinolin-6-yl}methyl)pyrrolidin-3-yl]oxy}-1-oxo-2,3-dihydro-1H-isoindol-2-yl)piperidine-2,6-dione] | 31.5 | 2.6 | 1.38 | 8.2675 |  |  |
| CC(=O)N1CCC(c2ccc3cc(CN4CC[C@H](Oc5ccc6c(c5)CN([C@H]5CCC(=O)NC5=O)C6=O)C4)ccc3n2)CC1 [(3S)-3-(5-{[(3S)-1-{[2-(1-acetylpiperidin-4-yl)quinolin-6-yl]methyl}pyrrolidin-3-yl]oxy}-1-oxo-2,3-dihydro-1H-isoindol-2-yl)piperidine-2,6-dione] |  | 10.1 |  | 10.38 | 36.62 | 11.8 |
| O=C1CCC(N2Cc3cc(O[C@H]4CCN(Cc5ccc6nc(N7CCC78CCOCC8)ncc6c5)C4)ccc3C2=O)C(=O)N1 (stereo partly drawn) [3-(5-{[(3S)-1-[(2-{7-oxa-1-azaspiro[3.5]nonan-1-yl}quinazolin-6-yl)methyl]pyrrolidin-3-yl]oxy}-1-oxo-2,3-dihydro-1H-isoindol-2-yl)piperidine-2,6-dione] | 37 | 11.4 | 12.6 | 13.59 |  |  |
| C[C@@H]1CN(Cc2cc(F)c3nc(C4CCOCC4)ccc3c2)C[C@H]1Oc1ccc2c(c1)CN(C1CCC(=O)NC1=O)C2=O (stereo partly drawn) [3-(5-{[(3S,4R)-1-{[8-fluoro-2-(oxan-4-yl)quinolin-6-yl]methyl}-4-methylpyrrolidin-3-yl]oxy}-1-oxo-2,3-dihydro-1H-isoindol-2-yl)piperidine-2,6-dione] |  | 1.13 |  | 7.781 | 27.42 | 1.49 |
| COc1cncc(CN2CC[C@H](Oc3ccc4c(c3)CN(C3CCC(=O)NC3=O)C4=O)C2)c1 (stereo partly drawn) [3-(5-{[(3S)-1-[(5-methoxypyridin-3-yl)methyl]pyrrolidin-3-yl]oxy}-1-oxo-2,3-dihydro-1H-isoindol-2-yl)piperidine-2,6-dione] | 37.55 | 61.4 | 3320 | 48.12 |  |  |
| Cc1cnc2ccc(CN3CC[C@H](Oc4ccc5c(c4)CN(C4CCC(=O)NC4=O)C5=O)C3)c(C)c2c1 (stereo partly drawn) [3-(5-{[(3S)-1-[(3,5-dimethylquinolin-6-yl)methyl]pyrrolidin-3-yl]oxy}-1-oxo-2,3-dihydro-1H-isoindol-2-yl)piperidine-2,6-dione] | 39.05 | 7.92 | 93.8 | 53.11 |  |  |
| CO[C@H]1CC[C@H](c2ccc3cc(CN4CC[C@H](Oc5ccc6c(c5)CN(C5CCC(=O)NC5=O)C6=O)C4)ccc3n2)CC1 (stereo partly drawn) [3-(1-oxo-5-{[(3S)-1-({2-[(1r,4r)-4-methoxycyclohexyl]quinolin-6-yl}methyl)pyrrolidin-3-yl]oxy}-2,3-dihydro-1H-isoindol-2-yl)piperidine-2,6-dione] | 26 | 1.88 | 1.29 | 11.035 |  |  |
| O=C1CCC(N2Cc3cc(O[C@H]4CCN(Cc5ccc6nc(N7C[C@H]8CCO[C@H]8C7)ncc6c5)C4)ccc3C2=O)C(=O)N1 (stereo partly drawn) [3-(5-{[(3S)-1-({2-[(3aR,6aR)-hexahydro-2H-furo[2,3-c]pyrrol-5-yl]quinazolin-6-yl}methyl)pyrrolidin-3-yl]oxy}-1-oxo-2,3-dihydro-1H-isoindol-2-yl)piperidine-2,6-dione] | 35 | 12.6 | 13.4 | 13.09 |  |  |
| O=C1CCC(N2Cc3cc(O[C@H]4CCN(Cc5cc6c(cn5)OCC6)C4)ccc3C2=O)C(=O)N1 (stereo partly drawn) [3-(5-{[(3S)-1-({2H,3H-furo[2,3-c]pyridin-5-yl}methyl)pyrrolidin-3-yl]oxy}-1-oxo-2,3-dihydro-1H-isoindol-2-yl)piperidine-2,6-dione] | 34 | 20.8 | 751 | 25.455 |  |  |
| O=C1CC[C@H](N2Cc3cc(O[C@H]4CCN(Cc5cc(Cl)c6nc(C7CCOCC7)ccc6c5)C4)ccc3C2=O)C(=O)N1 [(3S)-3-(5-{[(3S)-1-{[8-chloro-2-(oxan-4-yl)quinolin-6-yl]methyl}pyrrolidin-3-yl]oxy}-1-oxo-2,3-dihydro-1H-isoindol-2-yl)piperidine-2,6-dione] |  | 1.1 |  | 10.22 | 29.99 | 4.44 |
| O=C1CC[C@H](N2Cc3cc(O[C@H]4CCN(Cc5ccc6nc(C7CCOCC7)ccc6c5)C4)ccc3C2=O)C(=O)N1 [(3S)-3-(5-{[(3S)-1-{[2-(oxan-4-yl)quinolin-6-yl]methyl}pyrrolidin-3-yl]oxy}-1-oxo-2,3-dihydro-1H-isoindol-2-yl)piperidine-2,6-dione] | 31.9 | 1.62 | 3.12 | 10.43 |  |  |
| Cc1ccc2cc(CN3C[C@@H](C)[C@H](Oc4ccc5c(c4)CN(C4CCC(=O)NC4=O)C5=O)C3)ccc2n1 (stereo partly drawn) [3-(5-{[(3S,4R)-4-methyl-1-[(2-methylquinolin-6-yl)methyl]pyrrolidin-3-yl]oxy}-1-oxo-2,3-dihydro-1H-isoindol-2-yl)piperidine-2,6-dione] | 33 | 3.1 | 17.5 | 12.51 |  |  |
| CO[C@H]1CCCN(c2ccc3cc(CN4CC[C@H](Oc5ccc6c(c5)CN(C5CCC(=O)NC5=O)C6=O)C4)ccc3n2)C1 (stereo partly drawn) [3-(5-{[(3S)-1-({2-[(3S)-3-methoxypiperidin-1-yl]quinolin-6-yl}methyl)pyrrolidin-3-yl]oxy}-1-oxo-2,3-dihydro-1H-isoindol-2-yl)piperidine-2,6-dione] | 34 | 5.83 | 5.29 | 10.12 |  |  |
| COc1ncc2cc(CN3CC[C@H](Oc4ccc5c(c4)CN(C4CCC(=O)NC4=O)C5=O)C3)ccc2n1 (stereo partly drawn) [3-(5-{[(3S)-1-[(2-methoxyquinazolin-6-yl)methyl]pyrrolidin-3-yl]oxy}-1-oxo-2,3-dihydro-1H-isoindol-2-yl)piperidine-2,6-dione] | 37 | 8.05 | 22.3 | 8.47 |  |  |

From patent publication US20240067632A1, “WEE1 Degrading Compounds and Uses Thereof” (Bristol-Myers Squibb Company, priority 2022, published 2024)
